{"source": "paper PMC5827777", "about": "“Synthesis and biological evaluation of RGD and isoDGR peptidomimetic-α-amanitin conjugates for tumor-targeting” (Beilstein Journal of Organic Chemistry, 2018)", "target": "T1, Recombinant human integrin αVβ3 (Homo sapiens, UniProt P05106+P06756)", "T1 construct": "purchased R&D Systems, Minneapolis, MN, USA", "T1 sequence (P06756 31-992 limits assumed)": "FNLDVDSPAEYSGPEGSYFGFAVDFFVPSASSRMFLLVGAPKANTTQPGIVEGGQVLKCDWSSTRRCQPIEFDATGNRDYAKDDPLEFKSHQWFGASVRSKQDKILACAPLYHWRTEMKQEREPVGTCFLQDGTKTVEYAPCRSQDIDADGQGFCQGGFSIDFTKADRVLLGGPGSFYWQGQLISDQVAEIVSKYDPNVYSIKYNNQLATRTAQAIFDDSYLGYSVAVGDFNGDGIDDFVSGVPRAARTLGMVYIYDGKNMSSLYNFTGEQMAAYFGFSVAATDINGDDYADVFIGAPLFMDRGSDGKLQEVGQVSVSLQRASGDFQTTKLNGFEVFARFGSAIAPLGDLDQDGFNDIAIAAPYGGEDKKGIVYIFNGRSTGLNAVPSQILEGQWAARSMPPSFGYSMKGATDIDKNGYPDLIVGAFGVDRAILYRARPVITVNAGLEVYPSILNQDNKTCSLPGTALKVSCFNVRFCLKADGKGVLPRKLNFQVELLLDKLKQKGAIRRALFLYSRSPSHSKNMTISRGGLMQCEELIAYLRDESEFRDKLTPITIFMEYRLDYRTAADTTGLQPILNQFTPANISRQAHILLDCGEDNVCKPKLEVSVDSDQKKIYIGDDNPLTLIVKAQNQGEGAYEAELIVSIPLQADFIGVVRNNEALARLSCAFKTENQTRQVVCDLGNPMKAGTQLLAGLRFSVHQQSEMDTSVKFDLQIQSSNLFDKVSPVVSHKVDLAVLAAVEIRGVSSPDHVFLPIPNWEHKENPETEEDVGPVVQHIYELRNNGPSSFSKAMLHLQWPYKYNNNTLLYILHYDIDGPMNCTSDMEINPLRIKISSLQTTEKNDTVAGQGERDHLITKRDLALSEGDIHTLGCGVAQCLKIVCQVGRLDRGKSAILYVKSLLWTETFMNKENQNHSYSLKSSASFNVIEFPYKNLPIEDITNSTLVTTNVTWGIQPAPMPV", "T1 sequence (P05106 27-718 limits assumed)": "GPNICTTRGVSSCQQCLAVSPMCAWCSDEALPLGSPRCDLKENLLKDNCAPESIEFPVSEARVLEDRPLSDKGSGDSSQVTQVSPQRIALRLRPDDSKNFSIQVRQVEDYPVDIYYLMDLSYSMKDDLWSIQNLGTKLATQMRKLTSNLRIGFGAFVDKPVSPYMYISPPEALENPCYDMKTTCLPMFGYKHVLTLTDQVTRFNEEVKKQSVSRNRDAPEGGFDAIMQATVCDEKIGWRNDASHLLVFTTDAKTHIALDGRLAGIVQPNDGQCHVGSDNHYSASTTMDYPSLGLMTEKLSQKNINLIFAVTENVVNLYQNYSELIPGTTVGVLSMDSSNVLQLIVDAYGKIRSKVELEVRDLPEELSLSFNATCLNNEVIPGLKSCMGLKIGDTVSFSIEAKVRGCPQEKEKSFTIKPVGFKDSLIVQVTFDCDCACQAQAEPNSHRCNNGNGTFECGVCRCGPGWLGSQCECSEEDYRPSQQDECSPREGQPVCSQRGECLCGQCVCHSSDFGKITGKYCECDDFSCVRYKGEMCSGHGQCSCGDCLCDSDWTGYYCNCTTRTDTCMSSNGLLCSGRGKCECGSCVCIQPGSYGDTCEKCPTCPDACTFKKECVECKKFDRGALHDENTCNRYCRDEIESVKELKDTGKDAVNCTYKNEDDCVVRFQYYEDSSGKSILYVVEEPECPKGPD", "assay": "Inhibition of biotinylated vitronectin binding to purified αVβ3 receptor (solid phase receptor binding assay)", "details": "conjugates, Table 2; mean ± SD of triplicate determinations", "description": "Conjugates 7–11 were evaluated for their ability to inhibit biotinylated vitronectin binding to the purified αVβ3 receptor. Screening assays were performed by incubating the immobilized integrin receptor with solutions of the cyclo[DKP-RGD]-α-amanitin and cyclo[DKP-isoDGR]-α-amanitin conjugates 7–11 at different concentrations (10^−12 to 10^−5 M) in the presence of biotinylated vitronectin (1 µg mL^−1) and measuring bound vitronectin. […]\nto assist the dissolution). The solution obtained was filtered (polypropylene, 0.45 μm, 13 mm ø, PK/100) and injected in the HPLC, affording purified products. Purity analyses were carried on a Dionex Ultimate 3000 instrument equipped with a Dionex RS Variable Wavelenght detector (column: Atlantis® Prep T3 OBDTM 5 μm 19 × 100 mm). The analyte (1 mg) was dissolved in 1 mL of H2O and was injected using the same gradient used in the purification step. The analysis of the integrals and the relative percentage of purity were performed with the software Chromeleon 6.80 SR11 Build 3161. Also, preparative HPLC LaPrep∑ equipped with autosampler AS3950 and a Phenomenex Luna C-18(2) column, 10 µm, 250 × 21.2 mm, with precolumn at 30 mL/min flow rate and analytical HPLC performed on Hitachi Chromaster (column oven Chromaster 5310, pump Chromaster 5110, autosampler Chromaster 5210, DAD Chromaster 5430) equipped with a Phenomenex Luna C-18(2) column, 10 µm, 250 × 4.6 mm, with precolumn at 1.4 mL/min flow rate were used. Freeze-drying: The product was dissolved in water and frozen with dry ice. The freeze-drying was carried out at least for 48 h at −50 °C using the instrument 5Pascal Lio5P DGT.\nSolid phase receptor binding assays\nRecombinant human integrin αVβ3 (R&D Systems, Minneapolis, MN, USA) was diluted to 0.5 µg/mL in coating buffer containing 20 mM Tris-HCl (pH 7.4), 150 mM NaCl, 1 mM MnCl2, 2 mM CaCl2, and 1 mM MgCl2. […] Absorbance at 415 nm was read in a SynergyTM HT Multi-Detection Microplate Reader (BioTek Instruments, Inc.). […]", "data": [{"compound": "CC[C@H](C)[C@@H]1NC(=O)CNC(=O)[C@@H]2Cc3c([nH]c4cc(OCc5ccc(NC(=O)[C@H](C)NC(=O)[C@@H](NC(=O)CCCC(=O)NCc6ccc(CN7C(=O)[C@H]8CC(=O)N[C@H](C(=O)O)CC(=O)NCC(=O)N[C@@H](CCCNC(=N)N)C(=O)NC[C@H]7C(=O)N8)cc6)C(C)C)cc5)ccc34)[S@+]([O-])C[C@H](NC(=O)CNC1=O)C(=O)N[C@@H](CC(N)=O)C(=O)N1C[C@H](O)C[C@H]1C(=O)N[C@@H]([C@@H](C)[C@@H](O)CO)C(=O)N2", "note": "[Compound 10, cyclo[DKP-isoDGR]-Val-Ala-α-amanitin]", "values": [{"measurement": "IC50", "value": "6.4 ± 1.9", "unit": "nM"}]}]}
